Measurements from patent US6331555A, “Treatment of platelet derived growth factor related disorders such as cancers” (priority 1999, dated 2001).
Like-named read-outs stand apart in the source and are kept apart here.

Tests used:
[1] = type: in vivo, mouse; conditions: IP A10 40 mg/kg single dose
Protocol: (§1) Plasma was prepared and frozen in liquid nitrogen. Tissues and organs were resected and immediately frozen in liquid nitrogen. After the addition of an internal standard, plasma samples were acidified with HCl and extracted with acetonitrile. The acetonitrile fraction was evaporated to dryness in a vacuum centrifuge with heating and redissolved in methanol. Tissue and organ samples were homogenized according to the weight ratio of 1:5 (w:v) in 50 mM Tris-HCl, pH 7.4, at 20,000 rev/min, using a tissue homogenizer (Brinkmann Polytron Model PT3000). After the addition of an internal standard, the homogenate was acidified with HCl and then extracted with acetonitrile. The acetonitrile fraction was then extracted with an equal volume of diethyl ether. The ether fraction was evaporated to dryness in a vacuum centrifuge with heating and redissolved in methanol.
Samples for HPLC analysis were injected onto a Hewlett Packard Hypersil 5-μm C18 cartridge column (100×4.6 mm). […] The compounds were monitored by UV absorption at 254 nm using a Hewlett-Packard diode-array detector (HP Model 1090). Plasma and tissue concentrations were determined from standard curves using peak area for quantitation. […]
(§2) Table XXII. […] Plasma and brain samples were prepared and analyzed by HPLC as described in Appendix 6. All results were calculated by the method of internal standardization. NT= not tested, ND= not detected.

[2] = test system: NIH3T3 cells overexpressing the human PDGF-b receptor; experiment: PDGF-stimulated cell cycle progression, flow cytometry; type: cell-based, mouse
Protocol: NIH3T3 mouse fibroblasts overexpressing the human PDGF-β receptor were seeded in DMEM supplemented with 10% CS and 2 mM GLN. Cells were grown to about 80% confluence and then treated overnight in serum-free medium (DMEM, 2 mM GLN, 2 mM NEAA, 2 mM NaPyr, and 2 mM HEPES). […] Cells were then collected, strained and analyzed by flow cytometry for DNA content.
The percentage of cells in the S phase of the cell cycle was determined by flow cytometry.
The cells were analyzed for DNA content by flow cytometry.

[3] = in vivo; design: species or system rat; conditions: IP A10 80 mg/kg single dose
Protocol: as §1
(§3) Samples for HPLC analysis were injected onto a Hewlett Packard Hypersil 5-μm C18 cartridge column (100×4.6 mm). The mobile phase was methanol:35 mM KH2 PO4 (pH 4.5) 55:45 containing 4 mM triethylamine. The flow rate was 1.2 mL/min. The compounds were monitored by UV absorption at 254 nm using a Hewlett-Packard diode-array detector (HP Model 1090). Plasma and tissue concentrations were determined from standard curves using peak area for quantitation. […] The internal standard used was 5-methyl-pyrazole-4-carboxylic acid-(4-trifluoromethyl)-anilide.
as §2

[4] = test system: T98G cells; experiment: PDGF-stimulated DNA synthesis, T98G cells (3H-thymidine); type: cell-based, human
Protocol: T98G cells in log phase growth were transferred to 96-well dishes at 20,000 cells in 200 μL of serum-containing growth medium. After an overnight attachment period, the monolayers were washed twice with 200 μL MCDB 105 medium and the cells were cultured in 200 μL serum-free MCDB 105 medium for 24 hr. […] The plates were incubated at 37° C. at ambient CO2 for approximately 18 hr. ^3 H-thymidine (Amersham, 5 Ci/mmol) was added to each well to yield a final concentration of 5 μCi/mL and the plates were returned to 37° C. incubator. After 4 hr the medium was removed, the plates were put onto ice, and washed twice with 200 μL ice-cold PBS per well. Radioactivity incorporated into DNA was separated from unincorporated ^3 H-thymidine by precipitation with 100 μL ice-cold TCA for 10 min on ice. […] Six mL of cocktail (Ready Safe, Beckman) was added and radioactivity quantified in a Beckman liquid scintillation counter model LS6000SC. […]
The effect on basal ^3 H-thymidine incorporation was determined in the absence of PDGF. […] Radioactivity incorporated into DNA was separated from unincorporated ^3 H-thymidine by precipitation with […] ice-cold TCA for 10 minutes. […] Six ml of cocktail (Ready Safe, Beckman) was added and radioactivity quantified in a Beckman liquid scintillation counter model LS6000 SC.

[5] = Protocol: as §1, §3, §2
[6] = Solubility; conditions: water
From the text: PBTE consists of a solution of 3% w/v benzyl alcohol, 8% w/v polysorbate 80, and 65% w/v polyethylene glycol (MW=300 daltons) in absolute ethanol. PBTE:D5W consists of PBTE diluted 1:1 in a solution of 5% dextrose in water. […] The solubility of the other compounds described herein can be obtained using standard techniques.

[7] = test system: tumor cell lines; experiment: In vitro growth assays, tumor cell lines; type: cell-based
Protocol: The assay measures protein content of acid-fixed cells using the counterion binding dye sulforhodamine B (SRB, Sigma). […] For other cell lines, the cells (2000 cells/well in 100 μL) were introduced into wells immediately after dispensing the drug solutions. After 4 days (37° C., 5% CO2) the monolayers were washed 3 times with PBS and fixed with 200 μL ice-cold 10% TCA (Fisher Scientific), and kept at 4° C. for 60 min. The TCA was removed and the fixed monolayers were washed 5 times with tap water and allowed to dry completely at room temperature on absorbent paper. The cellular protein was stained for 10 min with 100 μL 0.4% SRB dissolved in 1% acetic acid. After 5 washes with tap water, the dye was solubilized in 10 mM Tris base (100 μL per well) and absorbance read at 570 nm on a Dynatech plate reader model MR5000. Growth inhibition data are expressed as a percentage of absorbance detected in control wells which were treated with 0.4% DMSO alone. DMSO controls were not different from cells grown in regular growth medium. IC50 values were determined using a four parameter curve fit function.
For K562, DlB, L1210, 7TDl, T27A, and Colo320 DM cells, an MTT assay was used to assess cell growth. […] The absorbance was determined at 570 nm wavelength with a reference wavelength of 630 nm using an ELISA plate reader.

[8] = test system: C6 glioma cells; experiment: C6 glioma SC xenograft in mice; type: in vivo
Protocol: Cell lines were grown in appropriate medium (see Appendix 1). Cells were harvested at or near confluency with 0.05% Trypsin-EDTA and pelleted at 450×g for 10 min. Pellets were resuspended in sterile PBS or media (without FBS) to a particular concentration and the cells were implanted into the hindflank of mice. Tumor growth was measured over 3 to 6 weeks using venier calipers. Tumor volumes were calculated as a product of length×width×height unless otherwise indicated. P values were calculated using the Students' t-test.
C6 and SKOV-3(T) cells were grown in culture, as described in "cell growth" above, and implanted into the hind flank of a female Balb/c nu/nu mouse at 3×10^6 cells (for C6 experiments), or 1×10^7 cells (for SKOV-3 experiments) in […] of PBS on Day 0. U87MG, U118MG or U373MG human glioblastoma cells (obtained from the ATCC), or A4312 were also implanted into athymic mice. […] Tumors were measured using venier calipers and tumor volume was calculated as a product of tumor length, width, and height.

CC(O)=C(C#N)C(=O)Nc1ccc(C(F)(F)F)cc1 [Compound B11, 2-cyano-3-hydroxy-N-[4-(trifluoromethyl)phenyl]-2-butenamide]
time detected in plasma [1]: more than 48 hr | potency compared to A10, PDGF-stimulated cell cycle progression [2]: equipotent | time detected in plasma [3]: greater than 24 hr | potency compared to A10, PDGF-stimulated DNA synthesis [4]: equipotent in inhibiting PDGF-stimulated DNA synthesis | brain level, athymic mice compared to Wistar rats ([5]; 2 hr post-dose): 11 times | brain level, athymic mice compared to Wistar rats ([5]; 4 hr post-dose): 6.5 times | % Increase, multiple vs single dose ([5]; A10 20 mg/kg): 64% | % Increase, multiple vs single dose ([5]; A10 40 mg/kg): 69% | time detected in plasma ([5]; IP A10 40 mg/kg single dose): more than 48 hr | time detected in plasma ([5]; IP A10 […] mg/kg four weekly treatments, after last dose): 48 h | time detected in plasma ([5]; IP A10 […] mg/kg single dose): more than 48 hr | solubility in water [6]: not very soluble in water | potency compared to A10, in vitro growth assays [7]: equipotent to A10 | inhibition of tumor growth compared with A10 ([8]; B11 15 mg/kg/day (DMSO) vs A10 15 mg/kg/day (DMSO)): to the same extent | potency compared to A10, growth of C6 tumors in vivo ([8]; rat, in vivo): equipotent in the inhibition of the growth of C6 tumors in vivo
